According to US20120040977A1, “INHIBITORS OF HCV NS5A” (PRESIDIO PHARMACEUTICALS, INC., priority 2009, published 2012):

System: HCV genotype 1b replicon
Experiment: HCV replicon assay (HCV 1b_Huh-Luc/Neo-ET cell line, luciferase readout)
Format: cell-based
Conditions: Hepatitis C virus; bicistronic genotype 1b replicon in Huh 7 cells, 72 h incubation, luciferase enzyme activity; read-out: Inhibition of HCV genotype 1b
Procedure: Biological activity of the compounds of the invention was determined using an HCV replicon assay. The HCV 1b_Huh-Luc/Neo-ET cell line persistently expressing a bicistronic genotype 1b replicon in Huh 7 cells was obtained from ReBLikon GMBH. This cell line was used to test compound inhibition using luciferase enzyme activity readout as a measurement of compound inhibition of replicon levels.
On Day 1 (the day after plating cells), each compound is added in triplicate to the cells. Plates are incubated for 72 h prior to determining luciferase levels. Enzyme activity was measured using a Bright-Glo Kit (cat. number E2620) manufactured by Promega Corporation. The following equation was used to generate a percent control value for each compound.
% Control=(Average Compound Value/Average Control)*100
The EC50 value was determined using GraphPad Prism and the following equation:
Y=Bottom+(Top−Bottom)/(1+10̂((LogIC50−X)*HillSlope))
EC50 values of compounds are determined several times in the replicon assay. […]

| Compound | EC50 [nM] |
| --- | --- |
| CC(C)[C@@H](NC(=O)OC(C)(C)C)C(=O)N1CCC[C@H]1c1ncc(-c2ccc(Oc3ccc(-c4cnc([C@@H]5CCCN5C(=O)[C@H](NC(=O)OC(C)(C)C)C(C)C)[nH]4)cc3)cc2)[nH]1 [Compound 48] | 1 to 9.9 |
| C[C@@H](NC(=O)[C@@H]1CCCN1C(=O)[C@H](NC(=O)C1CC1)c1ccccc1)c1ccc(-c2ccc(-c3cnc([C@@H]4CCCN4C(=O)[C@H](NC(=O)C4CC4)c4ccccc4)[nH]3)cc2)cc1 [Compound 40] | < 1 |
| COC(=O)N[C@H](C(=O)N1CCC[C@H]1CNC(=O)c1ccc(-c2ccc(-c3cnc([C@@H]4CCCN4C(=O)[C@@H](NC(=O)OC)C(C)C)[nH]3)cc2)cc1)C(C)C [Compound 99] | < 1 |
| CC(C)(C)OC(=O)N[C@@H](C(=O)N1CCC[C@H]1COc1ccc(-c2ccc(-c3cnc([C@@H]4CCCN4C(=O)[C@H](NC(=O)OC(C)(C)C)c4ccccc4)[nH]3)cc2)cc1)c1ccccc1 [Compound 30] | < 1 |
| COC(=O)N[C@@H](C(=O)N1CCC[C@H]1C(=O)Nc1ccc(-c2ccc(-c3cnc([C@@H]4CCCN4C(=O)[C@H](NC(=O)OC)c4ccccc4)[nH]3)cn2)cc1)c1ccccc1 [Compound 72] | < 1 |
| O=C(N[C@@H](C(=O)N1CCC[C@H]1COc1ccc(-c2ccc(-c3cnc([C@@H]4CCCN4C(=O)[C@H](NC(=O)C4CC4)c4ccccc4)[nH]3)cc2)cc1)c1ccccc1)C1CC1 [Compound 31] | < 1 |
| COC(=O)N[C@@H](C(=O)N1CCC[C@H]1c1ncc(-c2ccc(-c3ccc(C(=O)NC[C@@H]4CCCN4C(=O)[C@@H](c4ccccc4)N4CCOCC4)cc3)cc2)[nH]1)c1ccccc1 [Compound 63] | < 1 |
| O=C(N[C@@H](C(=O)N1CCC[C@H]1C(=O)Nc1ccc(-c2ccc(-c3cnc([C@@H]4COCCN4C(=O)[C@H](NC(=O)C4CC4)c4ccccc4)[nH]3)cc2)cc1)c1ccccc1)C1CC1 [Compound 11] | < 1 |
| C[C@@H](NC(=O)OC(C)(C)C)C(=O)N1CCC[C@H]1C(=O)Nc1ccc(-c2ccc(-c3cnc([C@@H]4CCCN4C(=O)[C@@H](C)NC(=O)OC(C)(C)C)[nH]3)cc2)cc1 [Compound 14] | 1 to 9.9 |
| COC(=O)N[C@H](C(=O)N1CCC[C@H]1c1ncc(-c2ccc(Oc3cccc(-c4cnc([C@@H]5CCCN5C(=O)[C@@H](NC(=O)OC)C(C)C)[nH]4)c3)cc2)[nH]1)C(C)C [Compound 70] | < 1 |
| COC(=O)N[C@H](C(=O)N1CCC[C@H]1CNC(=O)c1ccc(-c2ccc(-c3cnc([C@@H]4CCCN4C(=O)[C@@H](NC(=O)OC)C(C)C)[nH]3)cc2)cn1)C(C)C [Compound 83] | 1 to 9.9 |
| COC(=O)N[C@@H](C)C(=O)N1CCC[C@H]1C(=O)Nc1ccc(-c2ccc(-c3cnc([C@@H]4CCCN4C(=O)[C@H](C)NC(=O)OC)[nH]3)cc2)cc1 [Compound 108] | 10 to 999 |
| COC(=O)N[C@@H](C(=O)N1CCC[C@H]1C(=O)NCc1ccc(-c2ccc(-c3cnc([C@@H]4CCCN4C(=O)[C@H](NC(=O)OC)c4ccccc4)[nH]3)cc2)cn1)c1ccccc1 [Compound 120] | < 1 |
| COC(=O)N[C@@H](C(=O)N1CCC[C@H]1CNC(=O)c1ccc(-c2ccc(-c3cnc([C@@H]4CCCN4C(=O)[C@H](NC(=O)OC)c4ccccc4)[nH]3)cn2)cc1)c1ccccc1 [Compound 79] | < 1 |
| COC(=O)N[C@H](C(=O)N1CCC[C@H]1C(=O)N[C@@H](C)c1ccc(-c2ccc(-c3cnc([C@@H]4CCCN4C(=O)[C@@H](NC(=O)OC)[C@@H](C)OC)[nH]3)cc2)cc1)[C@@H](C)OC [Compound 100] | < 1 |
| CC(C)[C@@H](NC(=O)C1CC1)C(=O)N1CCC[C@H]1C(=O)Nc1ccc(-c2ccc(-c3cnc([C@@H]4COCCN4C(=O)[C@H](NC(=O)C4CC4)C(C)C)[nH]3)cc2)cc1 [Compound 20] | 1 to 9.9 |
| COC(=O)N[C@@H](C(=O)N1CCC[C@H]1c1ncc(-c2ccc(-c3ccc(C(=O)NC[C@@H]4CCCN4C(=O)[C@@H](c4ccccc4)N4CCCCC4)cc3)cc2)[nH]1)c1ccccc1 [Compound 64] | < 1 |
| CC(C)[C@@H](NC(=O)OC(C)(C)C)C(=O)N1CCC[C@H]1C(=O)Nc1ccc(-c2ccc(-c3cnc([C@@H]4CCCN4C(=O)[C@H](NC(=O)OC(C)(C)C)C(C)C)[nH]3)cc2)cc1 [Compound 15] | 1 to 9.9 |
| COC(=O)N[C@@H](C(=O)N1CCC[C@H]1C(=O)NCc1ccc(-c2ccc(-c3cnc([C@@H]4CCCN4C(=O)[C@H](NC(=O)OC)c4ccccc4)[nH]3)cn2)cc1)c1ccccc1 [Compound 118] | < 1 |
| CC(C)[C@@H](NC(=O)C1CC1)C(=O)N1CCOC[C@H]1C(=O)Nc1ccc(-c2ccc(-c3cnc([C@@H]4COCCN4C(=O)[C@H](NC(=O)C4CC4)C(C)C)[nH]3)cc2)cc1 [Compound 25] | 1 to 9.9 |
| COC(=O)N[C@H](C(=O)N1CCC[C@H]1CNC(=O)c1ccc(-c2ccc3c(c2)CCc2nc([C@@H]4CCCN4C(=O)[C@@H](NC(=O)OC)C(C)C)[nH]c2-3)cc1)C(C)C [Compound 84] | < 1 |

| Compound | EC50 [nM] |
| --- | --- |
| CC(C)[C@@H](NC(=O)C1CC1)C(=O)N1CCOC[C@H]1C(=O)Nc1ccc(-c2ccc(-c3cnc([C@@H]4CCCN4C(=O)[C@H](NC(=O)C4CC4)C(C)C)[nH]3)cc2)cc1 [Compound 23] | 1 to 9.9 |
| COC(=O)N[C@H](C(=O)N1CCC[C@H]1C(=O)NCc1ccc(-c2ccc(-c3cnc([C@@H]4CCCN4C(=O)[C@@H](NC(=O)OC)C(C)C)[nH]3)cc2)cc1)C(C)C [Compound 105] | 10 to 999 |
| COC(=O)N[C@H](C(=O)N1CCC[C@H]1C(=O)N[C@H](C)c1ccc(-c2ccc(-c3cnc([C@@H]4CCCN4C(=O)[C@@H](NC(=O)OC)C4CCOCC4)[nH]3)cc2)cc1)C1CCOCC1 [Compound 103] | 10 to 999 |
| COC(=O)N[C@@H](C(=O)N1CCC[C@H]1C(=O)NCc1ccc(-c2ccc3nc([C@@H]4CCCN4C(=O)[C@H](NC(=O)OC)c4ccccc4)[nH]c3c2)cc1)c1ccccc1 [Compound 111] | < 1 |
| CC(C)[C@@H](NC(=O)C1CC1)C(=O)N1CCC[C@H]1C(=O)Nc1ccc(-c2ccc(-c3cnc([C@@H]4CCCN4C(=O)[C@H](NC(=O)C4CC4)C(C)C)[nH]3)cc2)cc1 [Compound 29] | 1 to 9.9 |
| CC(C)(C)OC(=O)N[C@@H](C(=O)N1CCC[C@H]1CNC(=O)c1ccc(-c2ccc(-c3cnc([C@@H]4CCCN4C(=O)[C@H](NC(=O)OC(C)(C)C)c4ccccc4)[nH]3)cc2)cc1)c1ccccc1 [Compound 49] | < 1 |
| [2H]C([2H])([2H])C([2H])(C([2H])([2H])[2H])C([2H])(NC(=O)OC)C(=O)N1CCC[C@H]1c1ncc(-c2ccc(-c3ccc(CNC(=O)[C@@H]4CCCN4C(=O)[C@@]([2H])(NC(=O)OC)C([2H])(C([2H])([2H])[2H])C([2H])([2H])[2H])cc3)cc2)[nH]1 (some centres unmarked) [Compound 82] | 1 to 9.9 |
| C#CC[C@H](NC(=O)OC)C(=O)N1CCC[C@H]1C(=O)NCc1ccc(-c2ccc(-c3cnc([C@@H]4CCCN4C(=O)[C@H](CC#C)NC(=O)OC)[nH]3)cc2)cc1 [Compound 81] | 10 to 999 |
| COC(=O)N[C@@H](C)C(=O)N1CCC[C@H]1C(=O)NCc1ccc(-c2ccc(-c3cnc([C@@H]4CCCN4C(=O)[C@H](C)NC(=O)OC)[nH]3)cc2)cc1 [Compound 104] | 10 to 999 |
| COC(=O)N[C@H](C(=O)N1CCC[C@H]1C(=O)NCc1ccc(-c2ccc3cc(-c4cnc([C@@H]5CCCN5C(=O)[C@@H](NC(=O)OC)C(C)C)[nH]4)ccc3n2)cc1)C(C)C [Compound 86] | 1 to 9.9 |
| COC(=O)N[C@H](C(=O)N1CCC[C@H]1C(=O)N[C@H](C)c1ccc(-c2ccc(-c3cnc([C@@H]4CCCN4C(=O)[C@@H](NC(=O)OC)C(C)C)[nH]3)cc2)cc1)C(C)C [Compound 97] | 1 to 9.9 |
| CC(C)(C)OC(=O)N1CCOCC1C(=O)Nc1ccc(-c2ccc(-c3cnc([C@@H]4COCCN4C(=O)OC(C)(C)C)[nH]3)cc2)cc1 (some centres unmarked) [Compound 4] | > 1000 |
| COC(=O)N[C@H](C(=O)N1CCC[C@H]1C(=O)Nc1ccc(-c2ccc3c(ccc4nc([C@@H]5CCCN5C(=O)[C@@H](NC(=O)OC)C(C)C)[nH]c43)c2)cc1)C(C)C [Compound 114] | < 1 |
| C[C@@H](NC(=O)C1CC1)C(=O)N1CCOC[C@H]1C(=O)Nc1ccc(-c2ccc(-c3cnc([C@@H]4COCCN4C(=O)[C@@H](C)NC(=O)C4CC4)[nH]3)cc2)cc1 [Compound 24] | 10 to 999 |
| CC(C)(C)OC(=O)N[C@@H](C(=O)N1CCC[C@H]1C(=O)Nc1ccc(-c2ccc(-c3cnc([C@@H]4COCCN4C(=O)[C@H](NC(=O)OC(C)(C)C)c4ccccc4)[nH]3)cc2)cc1)c1ccccc1 [Compound 8] | < 1 |
| O=C(NC[C@@H]1CCCN1C(=O)[C@H](NC(=O)N1CCOCC1)c1ccccc1)c1ccc(-c2ccc(-c3cnc([C@@H]4CCCN4C(=O)[C@H](NC(=O)N4CCOCC4)c4ccccc4)[nH]3)cc2)cc1 [Compound 56] | < 1 |
| COC(=O)N[C@@H](C(=O)N1CCC[C@H]1c1ncc(-c2ccc(-c3ccc(C(=O)NC[C@@H]4CCCN4C(=O)[C@H](NC(=O)N4CCOCC4)c4ccccc4)cc3)cc2)[nH]1)c1ccccc1 [Compound 67] | < 1 |
| COC(=O)N[C@H](C(=O)N1CCC[C@H]1CNC(=O)c1ccc(-c2ccc(-c3cnc([C@@H]4CCCN4C(=O)[C@@H](NC(=O)OC)C(C)C)[nH]3)cn2)cc1)C(C)C [Compound 78] | < 1 |
| C[C@H](NC(=O)[C@@H]1CCCN1C(=O)[C@H](NC(=O)C1CC1)c1ccccc1)c1ccc(-c2ccc(-c3cnc([C@@H]4CCCN4C(=O)[C@H](NC(=O)C4CC4)c4ccccc4)[nH]3)cc2)cc1 [Compound 37] | < 1 |
| CC(C)[C@@H](NC(=O)OC(C)(C)C)C(=O)N1CCC[C@H]1C(=O)Nc1ccc(-c2ccc(-c3cnc([C@@H]4COCCN4C(=O)[C@H](NC(=O)OC(C)(C)C)C(C)C)[nH]3)cc2)cc1 [Compound 10] | 10 to 999 |
